This note sets out measurements from patent US12390470B2, “1-methylxanthine-based bioactive composition and method of use thereof” (Ingenious Ingredients, LP, priority 2021, dated 2025).

The test system of experiment [1] is participants. Briefly: Respiratory quotient, placebo-controlled crossover. Type of experiment: in vivo, human. On the procedure:
All supplements were orally ingested with 8 fluid ounces of cold tap water. The order of administration for all interventions was randomized using a random allocation software to ensure randomization and to avoid order effects. After ingestion, participants completed all assessments in an identical fashion 30, 60, 90, 120, and 180 minutes after ingestion of their assigned supplement. All study visits took place between 0600-1000 hours. At least 72 hours of rest will take place between each condition.
The lower the RQ, the more fat that is being oxidized for body energy needs. The closer to 1.0 the more carbohydrate is being burned for energy needs. If numbers are lower more fat is being oxidized.

Experiment [2] has as its system participant. Briefly: Wakefulness by Visual Analog Scale. The note with it: Person two. Type of experiment: in vivo, human. On the procedure:
One participant ingested a non-energetic placebo (maltodextrin) followed by 200 mg dose of 1-methylxanthine (1-MX) one week later, orally with 8 fluid ounces of cold tap water. Wakefulness was measured by Visual Analog Scale (VAS) at baseline, 30, 60, 90, 120 and 180 minutes after ingestion.

In the case of `Cn1c(=O)[nH]c2nc[nH]c2c1=O` [1-methylxanthine, 1-Methyl-3H-purine-2,6-dione], in experiment [1] (200 mg oral), the “respiratory quotient reduced compared to placebo” value worked out at 15%. In addition, in experiment [1] (200 mg oral, from respiratory quotient), the “greater fat loss than CA” value is recorded as 2.3%. Moreover, the “Respiratory Quotient MEAN (30-180)” value in experiment [1] (Average) is 0.685; in experiment [1] (Person one), 0.676; in experiment [1] (Person two) it was 0.694. In addition, the “Respiratory Quotient” value was 0.69 in experiment [1] (Person one, 30 min after ingestion); 0.66 in experiment [1] (Person one, 60 min); 0.67 in experiment [1] (Person one, 90 min); 0.69 in experiment [1] (Person one, 120 min); 0.67 in experiment [1] (Person one, 180 min); 0.67 in experiment [1] (Person one, time 0, 200 mg oral). The “Respiratory Quotient” value in experiment [1] (Person two, 30 min) was determined as 0.72; in experiment [1] (Person two, 60 min), 0.71; in experiment [1] (Person two, 90 min), 0.66; in experiment [1] (Person two, 120 min), 0.68; in experiment [1] (Person two, 180 min), 0.70; in experiment [1] (Person two, time 0, 200 mg oral), 0.70. Also, in experiment [2], the “Wakefulness (VAS) MEAN” value amounted to 69.0. Also, the “Wakefulness (Visual Analog Scale)” value in experiment [2] (30 min) is on record as 65; in experiment [2] (60 min), 65; in experiment [2] (90 min), 65; in experiment [2] (120 min) it was 75; in experiment [2] (180 min), 75; in experiment [2] (time 0, 200 mg oral), 60.
